Assay results: patent US20230180804A1, “FLAVOR COMPOSITION, AND FOOD AND BEVERAGE” (TAKASAGO INTERNATIONAL CORPORATION, priority 2020, published 2023)

Assays:
olfactory receptor OR9Q2 = molecular target: T1, olfactory receptor OR9Q2 (Homo sapiens, UniProt Q8NGE9); assay: OR9Q2 response inhibitory effect for p-cresol, luciferase reporter gene assay; type: cell-based; conditions: p-cresol 100 µM mixed with various concentrations of compound; cells expressing OR9Q2; ratio of Fold Increase value (FIGS. 1 to 11)
T1 construct: 20 N-terminal amino acid residues of bovine rhodopsin (Rho tag); expressed in transfected cells; host or cells: HEK293T
T1 sequence (Q8NGE9 1-314): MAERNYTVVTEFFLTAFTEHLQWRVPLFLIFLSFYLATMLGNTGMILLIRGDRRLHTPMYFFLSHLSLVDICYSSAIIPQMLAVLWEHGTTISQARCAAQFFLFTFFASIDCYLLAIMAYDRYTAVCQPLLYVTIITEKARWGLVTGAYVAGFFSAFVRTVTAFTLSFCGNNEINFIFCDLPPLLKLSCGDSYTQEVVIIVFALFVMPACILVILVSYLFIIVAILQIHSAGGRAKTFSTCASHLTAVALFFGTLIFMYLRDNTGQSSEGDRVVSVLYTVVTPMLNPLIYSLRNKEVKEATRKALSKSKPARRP
Method: The human olfactory receptor gene was obtained by cloning from Human Genomic DNA: Female (Promega) by PCR method based on the sequence information registered in GenBank. The 20 N-terminal amino acid residues of bovine rhodopsin were incorporated into the pME18S vector, and the obtained human olfactory receptor gene was incorporated downstream thereof to obtain a human olfactory receptor gene expression vector.
In 10 µL of Opti-MEM I (gibco), 0.05 µg of human olfactory receptor gene expression vector, 0.01 µg of RTP1S vector, 0.01 µg firefly luciferase vector pGL4.29 (Promega) containing cAMP response element promoter, and 0.005 µg of Renilla luciferase vector pGL4.74 (Promega) containing thymidine kinase promoter were dissolved to prepare a gene solution (for one well). HEK293T cells were seeded at 100 µL each in a 96-well plate (Biocoat, Coming) at the number of cells reaching confluence after 24 hours, and a gene solution was added to each well by the lipofection method according to the usage of Lipofectamine 3000 to introduce genes into the cells, and the cells were cultured at 37° C. in a 5% carbon dioxide atmosphere for 24 hours.
After removing the culture medium, the resultant was prepared with CD293 (gibco) medium ([…] added) so as to have a concentration for measuring the aroma substance to be tested, 50 µL of which was added each and stimulated for 3 hours, and then luciferase activity was measured according to the method of using the Dual-Luciferase Reporter Assay System (Promega). The response intensity of the olfactory receptor polypeptide was expressed as a Fold Increase value obtained by dividing the luciferase activity produced by stimulating the aroma substance by the luciferase activity produced in the test system containing no aroma substance.
p-Cresol at 100 µM was mixed with various concentrations of 1-oxacycloheptadecan-7-en-2-one, 1-oxacycloheptadecan-8-en-2-one, isoambrettolide, pentalide, muscone, civetone, 8-2-decenolactone, cinnamic aldehyde, […], sclareolide, and ethyl maltol, and receptor responses were measured in cells expressing OR9Q2. The ratio of the Fold Increase value in the test in which each compound was mixed was calculated, where the Fold Increase value in the test in none of these compounds was mixed was set to 100. FIGS. 1 to 11 present the results.

[1] = Sensory evaluation of p-cresol odor masking in p-cresol-containing citrus-flavored beverage; conditions: for p-Cresol Odor Intensity: beverage with 50 ppb p-cresol, average score of 7 panelists, scale 0-4
Method: To 2 g of lemon flavor obtained by making lemon oil into an essence, purified water was added to adjust the total amount to 1000 ml. To this citrus-flavored beverage, p-cresol adjusted to a concentration of 1% by mass with 95% ethanol was added to 50 ppb in the citrus-flavored beverage. To this p-cresol-containing citrus-flavored beverage, 1-oxacycloheptadecan-7-en-2-one was added at the concentrations presented in Table 1 to confirm the p-cresol odor intensity (masking effect) and the influence on the citrus flavor of each sample.
For the test, seven skilled panelists were selected to perform sensory evaluation. The p-cresol odor intensity of the p-cresol-containing citrus-flavored beverage without added l-oxacycloheptadecan-7-en-2-one was determined as “Rating: 4,” and the p-cresol odor intensity of the p-cresol-free citrus-flavored beverage was determined as “Rating: 0,” and the p-cresol odor intensity (masking effect) of each sample was relatively evaluated according to the following evaluation criteria.
In addition, the influence of the citrus-flavored beverage on the citrus flavor was evaluated absolutely according to the following evaluation criteria for the presence or absence of off- flavor other than p-cresol odor and citrus flavor (Off-Flavor Intensity).
The results are as in Table 1, presenting the average score of the evaluation results for each panelist.

[2] = Sensory evaluation of p-cresol odor masking in p-cresol-containing citrus-flavored confectionery (tablet); conditions: for p-Cresol Odor Intensity: tablet with 200 ppb p-cresol, average score of 6 panelists, scale 0-4
Method: Lemon cold-pressed oil was added to the tablet having the composition presented in Table A at a concentration of 1 % by mass, and medium chain fatty acid triglycerides (MCT) was used to adjust p-cresol to a concentration of 0.1%, which was further added so as to reach 200 ppb in the citrus flavored confectionery. To this p-cresol-containing citrus-flavored confectionery, 1-oxacycloheptadecan-7-en-2-one was added at the concentrations presented in Table 12, and then tableting was performed to confirm the p-cresol odor intensity (masking effect) and the influence on the citrus flavor of each sample.
Six skilled panelists were selected to perform the same sensory evaluation as in Example 1. The results are as in Table 12, presenting the average score of the evaluation results for each panelist.

[3] = citrus-flavored beverage with 50 ppb p-cresol
[4] = citrus-flavored confectionery (tablet) with 200 ppb p-cresol

## O=C1CCCCCCC/C=C\CCCCCCO1 [Isoambrettolide, isoambrettolide]
Olfactory receptor OR9Q2
  effect of suppressing the response of OR9Q2 to p-cresol: suppressing the response of OR9Q2 to p-cresol in a concentration-dependent manner
[1]; 0.01 ppt added
  p-Cresol Odor Intensity: 3.7 points
[1]; 0.1 ppt added
  p-Cresol Odor Intensity: 2.7 points
[1]; 1 ppb added
  p-Cresol Odor Intensity: 1.3 points
[1]; 1 ppt added
  p-Cresol Odor Intensity: 2.4 points
[1]; 10 ppb added
  p-Cresol Odor Intensity: 1.3 points
[1]; 10 ppt added
  p-Cresol Odor Intensity: 2.1 points
[1]; 100 ppb added
  p-Cresol Odor Intensity: 0.9 points
[1]; 100 ppt added
  p-Cresol Odor Intensity: 1.6 points
[1]; [3]
  concentration at which the compound masks the p-cresol odor and does not affect the citrus flavor, lower limit: ≥ 0.1 ppt
  concentration at which the compound masks the p-cresol odor and does not affect the citrus flavor, upper limit: ≤ 1 ppb
[2]; 4 ppb added
  p-Cresol Odor Intensity: 2.5 points
[2]; 40 ppb added
  p-Cresol Odor Intensity: 1.8 points
[2]; 40 ppt added
  p-Cresol Odor Intensity: 3.0 points
[2]; 400 ppb added
  p-Cresol Odor Intensity: 1.5 points
[2]; 400 ppt added
  p-Cresol Odor Intensity: 2.7 points
[2]; [4]
  concentration at which the compound masks the p-cresol odor and does not affect the citrus flavor, lower limit: ≥ 400 ppt
  concentration at which the compound masks the p-cresol odor and does not affect the citrus flavor, upper limit: ≤ 400 ppb
